Test results reported in patent US8361970B2, “Growth factor binding molecules” (University of South Florida, priority 2000, dated 2013).

Legend:
[1] = tested on: human medulloblastoma DaOY; experiment: Antitumor efficacy, DaOY xenograft in nude mice; assay type: in vivo; conditions: 50 mg per kg per day
[2] = tested on: PDGF-AA stimulated PDGF receptor phosphorylation and Erk1/Erk2 activation; experiment: PDGF-AA stimulation of PDGF receptor phosphorylation and Erk1/Erk2 activation in NIH 3T3 cells; assay type: cell-based; conditions: NIH 3T3, PDGF-AA 10 ng/ml
Procedure: Starved NIII 3T3 cells (PDGF-BB and PDGF-AA), NIH 3T3 cells overexpressing either EGFR (EGF) or Flk-1 (VEGF) are pre-treated with the indicated concentrations of GFB-111 for 5 minutes before 10 minutes of stimulation with PDGF-BB (10 ng/ml), PDGF-AA (10 ng/ml), EGF (100 ng/ml) and VEGF (50 ng/ml). Cell lysates are run on SDS-PAGE gels, then transferred to nitrocellulose and Western blotted with anti-phosphotyrosine (4G 10) or anti-phosphorylated Erk1/Erk2 (New England Biolabs).

SMILES: CCCCOc1c2cc(C(=O)Nc3cc4cc(c3)C(=O)NCC(=O)N[C@@H](CC(=O)O)C(=O)NCC(=O)N[C@@H](Cc3ccc(O)cc3)C(=O)NC4)cc1Cc1cc(C(=O)Nc3cc4cc(c3)C(=O)NCC(=O)N[C@@H](CC(=O)O)C(=O)NCC(=O)N[C@@H](Cc3ccc(O)cc3)C(=O)NC4)cc(c1OCCCC)Cc1cc(C(=O)Nc3cc4cc(c3)C(=O)NCC(=O)N[C@@H](CC(=O)O)C(=O)NCC(=O)N[C@@H](Cc3ccc(O)cc3)C(=O)NC4)cc(c1OCCCC)Cc1cc(C(=O)Nc3cc4cc(c3)C(=O)NCC(=O)N[C@@H](CC(=O)O)C(=O)NCC(=O)N[C@@H](Cc3ccc(O)cc3)C(=O)NC4)cc(c1OCCCC)C2 [GFB-111]
- Growth of DaOY tumors [1]: minimally affected
- PDGF-AA stimulation of PDGF receptor phosphorylation and Erk1/Erk2 activation [2]: blocked
